Results taken from patent US7863312B2, “Pyrazolidinone compounds as ligands of the prostaglandin EP2 and/or EP4 receptors” (Merck Serono SA, priority 2001, dated 2011).

How the values were obtained:
EP4 receptor = EP4 receptor (Homo sapiens, UniProt P35408); assay: EP4 receptor binding assay (3H-PGE2 SPA); conditions: EP4 receptor membranes, 20 nM 3H-PGE2, pH 6.0, 2 hrs room temperature
Description: Compounds of the invention were tested in an EP4 receptor binding assay of the following protocol.

EP2 receptor = EP2 receptor (Homo sapiens, UniProt P43116); assay: EP2 receptor binding assay (3H-PGE2 SPA); conditions: EP2 receptor membranes, 20 nM 3H-PGE2, pH 6.0, 2 hrs room temperature
Description: Compounds of the invention were tested in an EP2 receptor binding assay of the following protocol. As referred to herein, the term a “standard EP2 receptor binding assay” designates the following protocol.

[1] = target: T1, HEK293-EBNA cells transfected with pCEP4-hEP2 receptors (Homo sapiens, UniProt P43116); assay: EP2 cAMP assay; type: cell-based; conditions: total cAMP, 1 hour 37° C.
T1 construct: expressed in transfected cells; host or cells: HEK293-EBNA
Description: (§1) Compounds of the invention were tested in a total cAMP assay as follows. HEK293-EBNA cells transfected with pCEP4-hEP2 receptors were seeded in 96 well opaque plate (Costar #3917) at 4×10^4 cells per well in 100 μl of culture medium (D-MEM/F12 supplemented with 10% FBS, […] L-glutamine, and 250 μg/ml of hygromycin; all from GibcoBRL) and incubated at 37° C. After overnight incubation, the medium was removed from each well and replaced with 45 μl of assay medium consisted of phenol red free D-MEM/F-12, 0.1% BSA (GibcoBRL) and 0.1 mM3-isobutyl-1-methyl-xanthine (Sigma). After 15 minutes of incubation at 37° C., 16-16-dimethyl PGE-2 or compounds at desired concentrations in 20 μl of assay medium were added to cells and further incubated at 37° C. for 1 hour. Total cAMP (intra- and extra-cellular) was measured by using a cAMP-screen ELISA System (Tropix, #CS1000).

[2] = target: T2, HEK293-EBNA cells transfected with pCEP4-hEP4 receptors (Homo sapiens, UniProt P35408); assay: EP4 cAMP assay; type: cell-based; conditions: total cAMP, 1 hour 37° C.
T2 construct: expressed in transfected cells; host or cells: HEK293-EBNA
Description: as §1, with “pCEP4-hEP4” for “pCEP4-hEP2”, “compounds of the invention” for “compounds”
In Table II, the tested compound is identified both by the corresponding synthetic Example number above as well as structure of the tested compound.

T1 sequence (P43116 whole entry): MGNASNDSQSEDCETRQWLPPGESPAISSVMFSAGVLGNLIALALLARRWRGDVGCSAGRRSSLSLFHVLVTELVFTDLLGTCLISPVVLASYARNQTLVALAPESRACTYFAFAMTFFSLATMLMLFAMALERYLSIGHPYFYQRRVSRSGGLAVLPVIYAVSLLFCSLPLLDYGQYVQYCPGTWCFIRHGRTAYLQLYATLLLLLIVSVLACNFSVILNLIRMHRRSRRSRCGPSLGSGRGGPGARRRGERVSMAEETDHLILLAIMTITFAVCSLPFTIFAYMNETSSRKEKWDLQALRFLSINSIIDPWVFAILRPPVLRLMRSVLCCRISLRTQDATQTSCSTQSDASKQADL
Chain of EP2 receptor (P43116 whole entry): as above
Chain of EP4 receptor (P35408 whole entry): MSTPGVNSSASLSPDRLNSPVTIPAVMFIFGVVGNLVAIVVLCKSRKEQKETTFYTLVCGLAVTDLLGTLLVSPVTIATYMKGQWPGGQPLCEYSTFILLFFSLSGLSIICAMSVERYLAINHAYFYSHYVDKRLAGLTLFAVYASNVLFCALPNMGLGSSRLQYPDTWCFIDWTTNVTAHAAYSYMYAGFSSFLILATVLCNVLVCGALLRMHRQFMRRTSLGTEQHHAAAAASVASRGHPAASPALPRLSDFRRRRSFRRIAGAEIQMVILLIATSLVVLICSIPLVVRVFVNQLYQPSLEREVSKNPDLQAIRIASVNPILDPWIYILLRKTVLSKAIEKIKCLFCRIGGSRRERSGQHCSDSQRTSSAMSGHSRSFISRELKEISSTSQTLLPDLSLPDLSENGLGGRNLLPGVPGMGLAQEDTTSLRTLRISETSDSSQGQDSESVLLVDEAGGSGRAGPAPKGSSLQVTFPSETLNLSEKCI
T2 sequence (P35408 whole entry): as above

## CC(c1ccccc1)C(O)CCN1CCC(=O)N1CCc1ccc(C(=O)O)cc1 (stereo in doubt) [Example 27, 4-(2-{2-[(4S)-3-hydroxy-4-phenylpentyl]-5-oxopyrazolidin-1-yl}ethyl)benzoic acid]
EP4 receptor
  Ki: 95 nM
EP2 receptor
  Ki: 7090 nM

## CCCCCC(O)/C=C\CN1CCC(=O)N1CCc1ccc(C(=O)O)cc1 (centres unmarked) [Example 4, 4-(2-{2-[(2Z)-4-hydroxynon-2-enyl]-5-oxopyrazolidin-1-yl}ethyl)benzoic acid]
[1]
  EC50: 2600 nM
EP2 receptor
  Ki: 17200 nM

## O=C(O)c1ccc(CCN2C(=O)CCN2CCC(O)Cc2ccc3c(c2)OCO3)cc1 (centres unmarked) [Example 28, 4-(2-{2-[4-(1,3-benzodioxol-5-yl)-3-hydroxybutyl]-5-oxopyrazolidin-1-yl}ethyl)benzoic acid]
EP4 receptor
  Ki: 376 nM

## O=C(O)c1ccc(CCN2C(=O)CCN2CCC(O)Cc2cccc(Cl)c2)cc1 (centres unmarked) [Example 29, 4-(2-{2-[4-(3-chlorophenyl)-3-hydroxybutyl]-5-oxopyrazolidin-1-yl}ethyl)benzoic acid]
EP4 receptor
  Ki: 18 nM
EP2 receptor
  Ki: 5690 nM

## CC(C)CC(O)CCN1CCC(=O)N1CCc1ccc(C(=O)O)cc1 (centres unmarked) [Example 12, 4-{2-[2-(3-hydroxy-5-methylhexyl)-5-oxopyrazolidin-1-yl]ethyl}benzoic acid]
[2]
  EC50: 277 nM
[1]
  EC50: 15000 nM
EP4 receptor
  Ki: 2000 nM
EP2 receptor
  Ki: 4410 nM

## CCCC(C)C(O)CCCN1CCC(=O)N1CCc1ccc(C(=O)O)cc1 (centres unmarked) [Example 8, 4-{2-[2-(4-hydroxy-5-methyloctyl)-5-oxopyrazolidin-1-yl]ethyl}benzoic acid]
[1]
  EC50: 2100 nM
EP2 receptor
  Ki: 5160 nM

## CC(C)CC(O)CCCN1CCC(=O)N1CCc1ccc(C(=O)O)cc1 (centres unmarked) [Example 7, 4-{2-[2-(4-hydroxy-6-methylheptyl)-5-oxopyrazolidin-1-yl]ethyl}benzoic acid]
[1]
  EC50: 9700 nM
EP2 receptor
  Ki: 28600 nM

## O=C(O)c1ccc(CCN2C(=O)CCN2CCC(O)Cc2cccc(OC(F)(F)F)c2)cc1 (centres unmarked) [Example 24, 4-[2-(2-{3-hydroxy-4-[3-(trifluoromethoxy)phenyl]butyl}-5-oxopyrazolidin-1-yl)ethyl]benzoic acid]
EP4 receptor
  Ki: 59 nM
EP2 receptor
  Ki: 2830 nM

## O=C(O)c1ccc(CCN2C(=O)CCN2CCC(O)Cc2ccccc2)cc1 (centres unmarked) [Example 21, 4-{2-[2-(3-hydroxy-4-phenylbutyl)-5-oxopyrazolidin-1-yl]ethyl}benzoic acid]
EP4 receptor
  Ki: 68 nM
EP2 receptor
  Ki: 6200 nM

## CCCCCC(O)/C=C/CN1CCC(=O)N1CCc1ccc(C(=O)O)cc1 (centres unmarked) [Example 5, 4-(2-{2-[(2E)-4-hydroxynon-2-enyl]-5-oxopyrazolidin-1-yl}ethyl)benzoic acid]
[1]
  EC50: 12500 nM
EP2 receptor
  Ki: 25900 nM

## CCCC(C)(O)CCCN1CCC(=O)N1CCc1ccc(C(=O)O)cc1 (centres unmarked) [Example 10, 4-{2-[2-(4-hydroxy-4-methylheptyl)-5-oxopyrazolidin-1-yl]ethyl}benzoic acid]
[1]
  EC50: 5300 nM
EP2 receptor
  Ki: 28900 nM

## CCCCCC(C)(O)CCCN1CCC(=O)N1CCc1ccc(C(=O)O)cc1 (centres unmarked) [Example 16, 4-{2-[2-(4-Hydroxy-4-methylnonyl)-5-oxopyrazolidin-1-yl]-ethyl}-benzoic acid]
[1]
  EC50: 1600 nM
EP2 receptor
  Ki: 475 nM

## O=C(O)c1ccc(CCN2C(=O)CCN2CCCC(O)C2(CC3CC3)CCC2)cc1 (centres unmarked) [Example 18, 4-[2-(2-{4-[1-(cyclopropylmethyl)cyclobutyl]-4-hydroxybutyl}-5-oxopyrazolidin-1-yl)ethyl]benzoic acid]
[1]
  EC50: 578 nM
EP2 receptor
  Ki: 610 nM

## CCCCCC(O)CCCN1CCC(=O)N1CCc1ccc(C(=O)O)cc1 (stereo in doubt) [Example 15, 4-{2-[2-((4R)-hydroxynonyl)-5-oxopyrazolidin-1-yl]ethyl}benzoic acid]
[1]
  EC50: 1500 nM
EP2 receptor
  Ki: 3260 nM

## CCCCCC(O)CCCN1CCC(=O)N1CCc1ccc(C(=O)O)cc1 (stereo in doubt) [Example 14, 4-{2-[2-((4S)-hydroxynonyl)-5-oxopyrazolidin-1-yl]ethyl}benzoic acid]
[2]
  EC50: 10 nM
[1]
  EC50: 566 nM
EP4 receptor
  Ki: 566 nM
EP2 receptor
  Ki: 1860 nM

## O=C(O)c1ccc(CCN2C(=O)CCN2CCC(O)Cc2cccc(C(F)(F)F)c2)cc1 (centres unmarked) [Example 26, 4-[2-(2-{3-hydroxy-4-[3-(trifluoromethyl)phenyl]butyl}-5-oxopyrazolidin-1-yl)ethyl]benzoic acid]
[1]
  EC50: 17600 nM
EP2 receptor
  Ki: 6650 nM

## CCC1(C(O)CCCN2CCC(=O)N2CCc2ccc(C(=O)O)cc2)CCC1 (centres unmarked) [Example 19, 4-(2-{2-[4-(1-ethylcyclobutyl)-4-hydroxybutyl}-5-oxopyrazolidin-1-yl}ethyl)benzoic acid]
[1]
  EC50: 393 nM
EP2 receptor
  Ki: 750 nM

## CC(C)CCC(C)(O)CCCN1CCC(=O)N1CCc1ccc(C(=O)O)cc1 (centres unmarked) [Example 11, 4-{2-[2-(4-hydroxy-4,7-dimethyloctyl)-5-oxopyrazolidin-1-yl]ethyl}benzoic acid]
[1]
  EC50: 10000 nM
EP2 receptor
  Ki: 20200 nM

## CCCCCC(O)CCN1CCC(=O)N1CCc1ccc(C(=O)O)cc1 (centres unmarked) [Example 1, 4-[2-(2-(3-hydroxyoctyl)-5-oxopyrazolidin-1-yl)ethyl]benzoic acid]
[2]
  EC50: 5 nM
[1]
  EC50: 595 nM
EP4 receptor
  Ki: 250 nM
EP2 receptor
  Ki: 2200 nM

## CCCCCC(O)CCCN1CCC(=O)N1CCc1ccc(C(=O)O)cc1 (centres unmarked) [Example 3, 4-{2-[2-(4-hydroxynonyl)-5-oxopyrazolidin-1-yl]ethyl}benzoic acid]
[1]
  EC50: 1300 nM
EP4 receptor
  Ki: 2000 nM
EP2 receptor
  Ki: 2440 nM

## CCCC(C)C(O)CCN1CCC(=O)N1CCc1ccc(C(=O)O)cc1 (centres unmarked) [Example 13, 4-{2-[2-(3-hydroxy-4-methylheptyl)-5-oxopyrazolidin-1-yl]ethyl}benzoic acid]
[1]
  EC50: 5000 nM
EP4 receptor
  Ki: 6000 nM
EP2 receptor
  Ki: 2760 nM

## CCCCCC(O)C#CCN1CCC(=O)N1CCc1ccc(C(=O)O)cc1 (centres unmarked) [Example 2, 4-{2-[2-(4-hydroxynon-2-ynyl)-5-oxopyrazolidin-1-yl]ethyl}benzoic acid]
[1]
  EC50: > 50000 nM
EP2 receptor
  Ki: > 50000 nM

## CCCCC(O)(CC)CCCN1CCC(=O)N1CCc1ccc(C(=O)O)cc1 (centres unmarked) [Example 9, 4-{2-[2-(4-ethyl-4-hydroxyoctyl)-5-oxopyrazolidin-1-yl]ethyl}benzoic acid]
[1]
  EC50: 461 nM
EP2 receptor
  Ki: 495 nM

## CCCCC(O)CCCN1CCC(=O)N1CCc1ccc(C(=O)O)cc1 (centres unmarked) [Example 6, 4-{2-[2-(4-hydroxyoctyl)-5-oxopyrazolidin-1-yl]ethyl}benzoic acid]
[1]
  EC50: 1400 nM
EP2 receptor
  Ki: 5660 nM

## CC(c1ccccc1)C(O)CCN1CCC(=O)N1CCc1ccc(C(=O)O)cc1 (stereo in doubt) [Example 30, 4-(2-{2-[(4R)-3-hydroxy-4-phenylpentyl]-5-oxopyrazolidin-1-yl}ethyl)benzoic acid]
EP4 receptor
  Ki: 93 nM
EP2 receptor
  Ki: 5130 nM

## O=C(O)c1ccc(CCN2C(=O)CCN2CCC(O)Cc2cccc(F)c2)cc1 (centres unmarked) [Example 25, 4-(2-{2-[4-(3-fluorophenyl)-3-hydroxybutyl]-5-oxopyrazolidin-1-yl}ethyl)benzoic acid]
EP4 receptor
  Ki: 36 nM
EP2 receptor
  Ki: 6290 nM
